One assay has as its system HIV-1-MDR. In words: Cellular anti-viral assay in MT4-LTR-EGFP cells, multi-drug resistant HIV-1 virus. It is filed as cell-based. As to conditions: Human immunodeficiency virus 1, 72 h, read-out: Activity class for HIV-1-MDR test. The method, then: (§1) The compounds were tested in a cellular assay using the MT4-LTR-EGFP cells for anti-viral activity. […] The cellular assay was performed according to the following procedure.
(§2) HIV- or mock-infected MT4-LTR-EGFP cells were incubated for three days in the presence of various concentrations of the inhibitor. Upon infection, the GFP reporter is activated by the viral tat protein. At the end of the incubation period, the GFP signal was measured. In the virus control samples (in the absence of any inhibitor) the maximal fluorescent signal was obtained. The inhibitory activity of the compound was monitored on the virus-infected cells and was expressed as EC50 and EC90. These values represent the amount of the compound required to protect 50% and 90%, respectively, of the cells from virus infection. The toxicity of the compound was measured on the mock-infected cells and was expressed as CC50, which represents the concentration of compound required to inhibit the growth of the cells by 50%. The selectivity index (SI) (ratio CC50/EC50) is an indication of the selectivity of the anti-HIV activity of the inhibitor.

A further assay concerns HIV-1 strain LAI. In words: Cellular anti-viral assay in MT4-LTR-EGFP cells, wild type HIV-1 strain LAI. It is filed as cell-based. As to conditions: Human immunodeficiency virus 1, 72 h; MT4-LTR-EGFP cells, three days incubation, GFP signal; average EC50 used where more than one run; read-out: Activity class for HIV-1-LAI test. The method, then: as §1, §2

The text below walks through data of patent US7326703B2, “(1,10B-Dihydro-2-(aminocarbonyl-phenyl)-5H-pyrazolo[1,5-c][1,3]benzoxazin-5-yl)phenyl methanone derivatives as HIV viral replication inhibitors” (priority 2004, dated 2008).

pEC50: −log10 of the molar value.

With `O=C(NCCc1ccccn1)c1ccc(C2=NN3C(C(=O)c4ccc(F)cc4)Oc4ccccc4C3C2)cc1` (stereo not drawn) [Compound 19], the figures for the pEC50 in the assay with HIV-1-MDR and in the assay with HIV-1 strain LAI were < 5.00 and 5.00 to 6.00, respectively.

On to `O=C(NC1CCCC1)c1ccc(C2=NN3C(C(=O)c4cccc(Br)c4)Oc4ccccc4C3C2)cc1` (stereo not drawn) [Compound 58], for which the pEC50 in the assay on HIV-1-MDR and in the assay with HIV-1 strain LAI was > 6.00 in each case.

In the case of `CCc1ccc(C(=O)C2Oc3ccccc3C3CC(c4ccc(C(=O)NC5CCCC5)cc4)=NN23)cc1` (stereo not drawn) [Compound 47], the pEC50 in the assay on HIV-1-MDR and in the assay with HIV-1 strain LAI was > 6.00 in each case.

As for `O=C(NCCN1CCCC1)c1ccc(C2=NN3C(C(=O)c4ccc(F)cc4)Oc4ccccc4C3C2)cc1` (stereo not drawn) [Compound 40], the results for the pEC50 in the assay with HIV-1-MDR and in the assay on HIV-1 strain LAI were < 5.00 and 5.00 to 6.00, respectively.

As to `CN1CCN(C(=O)c2ccc(C3=NN4C(C(=O)c5ccc(F)cc5)Oc5ccccc5C4C3)cc2)CC1` (stereo not drawn) [Compound 35], the pEC50 in the assay with HIV-1-MDR is < 5.00; in the assay on HIV-1 strain LAI, > 6.00.

Take `CS(=O)(=O)c1ccc(C(=O)C2Oc3ccccc3C3CC(c4ccc(C(=O)NC5CCCC5)cc4)=NN23)cc1` (stereo not drawn) [Compound 53]: the pEC50 in the assay on HIV-1-MDR and with HIV-1 strain LAI was > 6.00 throughout.

As to `CC(C)(C)c1ccc(C(=O)C2Oc3ccccc3C3CC(c4ccc(C(=O)NC5CCCC5)cc4)=NN23)cc1` (stereo not drawn) [Compound 50], the pEC50 in the assay with HIV-1-MDR and with HIV-1 strain LAI was > 6.00 in each case.

Turning to `O=C(NC1CCCC1)c1ccc(C2=NN3C(C(=O)c4ccc([N+](=O)[O-])cc4)Oc4ccccc4C3C2)cc1` (stereo not drawn) [Compound 52], the pEC50 with HIV-1-MDR and with HIV-1 strain LAI was > 6.00 in each case.

On to `CN(C)CCN(C)C(=O)c1ccc(C2=NN3C(C(=O)c4ccc(F)cc4)Oc4ccccc4C3C2)cc1` (stereo not drawn) [Compound 39], for which the pEC50 is 5.00 to 6.00 in the assay with HIV-1-MDR and > 6.00 in the assay on HIV-1 strain LAI.

Take `O=C(NC1CCC1)c1ccc(C2=NN3C(C(=O)c4ccc(F)cc4)Oc4ccccc4C3C2)cc1` (stereo not drawn) [Compound 38]: the pEC50 with HIV-1-MDR was 5.00 to 6.00; with HIV-1 strain LAI it was > 6.00.

`CN(C)CCCN(C)C(=O)c1ccc(C2=NN3C(C(=O)c4ccc(F)cc4)Oc4ccccc4C3C2)cc1` (stereo not drawn) [Compound 20]: the pEC50 in the assay on HIV-1-MDR and in the assay with HIV-1 strain LAI was 5.00 to 6.00 each time.

With `CCN(CC)CCNC(=O)c1ccc(C2=NN3C(C(=O)c4ccc(F)cc4)Oc4ccccc4C3C2)cc1` (stereo not drawn) [Compound 42], the results for the pEC50 in the assay with HIV-1-MDR and in the assay on HIV-1 strain LAI were < 5.00 and 5.00 to 6.00, respectively.

`COc1ccc(N(C)C(=O)c2ccc(C3=NN4C(C(=O)c5ccc(F)cc5)Oc5ccccc5C4C3)cc2)cc1` (stereo not drawn) [Compound 28]: the pEC50 in the assay on HIV-1-MDR and with HIV-1 strain LAI was > 6.00 each time.

Regarding `CN(C)CCN(Cc1ccccc1)C(=O)c1ccc(C2=NN3C(C(=O)c4ccc(F)cc4)Oc4ccccc4C3C2)cc1` (stereo not drawn) [Compound 43], the results for the pEC50 with HIV-1-MDR and with HIV-1 strain LAI were < 5.00 and 5.00 to 6.00, respectively.

With `CCNC(=O)c1ccc(C2=NN3C(C(=O)c4ccc(F)cc4)Oc4ccccc4C3C2)cc1` (stereo not drawn) [Compound 32], the pEC50 is 5.00 to 6.00 with HIV-1-MDR and < 5.00 in the assay on HIV-1 strain LAI.

Take `CC(C)(C)NCCNC(=O)c1ccc(C2=NN3C(C(=O)c4ccc(F)cc4)Oc4ccccc4C3C2)cc1` (stereo not drawn) [Compound 41]: the pEC50 is < 5.00 in the assay with HIV-1-MDR and 5.00 to 6.00 in the assay on HIV-1 strain LAI.

`O=C(NCc1cccs1)c1ccc(C2=NN3C(C(=O)c4ccc(F)cc4)Oc4ccccc4C3C2)cc1` (stereo not drawn) [Compound 30]: the pEC50 in the assay on HIV-1-MDR and in the assay with HIV-1 strain LAI was < 5.00 each time.

For `O=C(NC1CCCCC1)c1ccc(C2=NN3C(C(=O)c4ccc(F)cc4)Oc4ccccc4C3C2)cc1` (stereo not drawn) [Compound 1], the pEC50 was < 5.00 in the assay on HIV-1-MDR and 5.00 to 6.00 in the assay with HIV-1 strain LAI.
